In patent publication US11491129B2, “Oral formulations of bipolar trans carotenoids” (priority 2010, dated 2022):

What was measured:
[1] = Behaviour of TSC under acidic conditions (stomach); assay type: physicochemical
Description: TSC is precipitated under acidic conditions, such as those which exist in the stomach. […] TSC is not stable in acidic conditions and will be converted to the cis isomer which can precipitate. A system has been devised that will protect TSC in the harsh, acidic environment of the stomach and release TSC in a more favorable pH region. A more favorable pH does exist in the small intestines. […] See Examples below. TSC's effectiveness is believed to be dependant on the TSC concentrations levels found in the body. The effectiveness of TSC can be prolonged by administering TSC orally. […] TSC must be protected from the harsh environment of the stomach and be release in a more favorable, higher pH region of the small intestine. For this study, tablets of TSC were made (Table 1) and were enterically coated with either Eudragit L100 or cellulose acetate phthalate (CAP). The integrity of both types of protective coatings were confirmed in a USP dissolution study in which enterically coated tablets were first place in a dissolution cell containing simulated gastric fluid (SGF), then transferred to another cell containing simulated intestinal fluid (SIF). […] This study was performed according to USP protocols.

[2] = Intestinal (jejunum) absorption of TSC and effect of gamma cyclodextrin; assay type: in vivo; settings: rat jejunum; approx. 60 mg/kg TSC; TSC:gamma cyclodextrin 0.5:1 up to 4:1 (wt:wt); FIG. 2
Description: Male Sprague-Dawley (SD) and Wistar rats weighing approximately 300-400 g each were fasted for 24 hours prior to each experiment. Water was given ad libitum and coprophagy was prevented by using cages with wire-mesh floors. Anesthesia was induced and maintained with isoflurane. The carotid artery was exposed and cannulated with PE-50 tubing. The cannula was secured using silk sutures and 2% lidocaine was applied to the wound.
Following cannulation, a front midline […] was made, exposing the abdomen and intestinal segments. In this study, the jejunum was isolated and the TSC formulation was administered in the proximal jejunum. Approximately 60 mg/kg TSC was administered at various gamma cyclodextrin ratios of 0.5:1 up to 4:1 (wt. TSC:wt. gamma cyclodextrin). Movement of TSC within the intestinal segments was not restricted distal to the site of administration. The intestine was replaced and the abdomen closed with sutures. Approximately 0.3 mL blood samples were taken for the carotid artery at discrete time intervals following TSC administration. A small amount of sodium heparin was used as an anticoagulant. The blood samples were centrifuged and the resulting plasma volume mixed with 3 volumes of methanol and vortexed. The plasma mixture was then centrifuged and the supernatant was analyzed by HPLC to determine TSC levels.

[3] = Scalability for Cmax: TSC with gamma cyclodextrin 1:1 in jejunum; assay type: in vivo; settings: rat jejunum; 2.5, 5, 10 and 60 mg/kg TSC; TSC:gamma cyclodextrin 1:1; FIG. 4
Description: The dosage of TSC used in the above study is large, therefore, additional doses of TSC were administered with gamma cyclodextrin at a ratio of 1:1 (wt. TSC:wt. gamma cyclodextrin) in order to determine the scalability of systemic absorption (in terms of Cmax) with respect to TSC dosing amount. For the following study, TSC was administered to the jejunum intestinal segment at the following dosages: 2.5, 5, 10, and 60 mg/kg.
For this study, male Sprague-Dawley (SD) and Wistar rats weighing approximately 300-400 g each were fasted for 24 hours prior to each experiment. Water was given ad libitum and coprophagy was prevented by using cages with wire-mesh floors. Anesthesia was induced and maintained with isoflurane. The carotid artery was exposed and cannulated with PE-50 tubing. The cannula was secured using silk sutures and 2% lidocaine was applied to the wound.
Following cannulation, a front midline […] was made, exposing the abdomen and intestinal segments. In this study, the jejunum was isolated and the TSC formulation was administered in the proximal jejunum. Movement of TSC within the intestinal segments was not restricted distal to the site of administration. The intestine was replaced and the abdomen closed with sutures. […] The plasma mixture was then centrifuged and the supernatant was analyzed by HPLC to determine TSC levels.

neurons [4] = assay: Rat model of hemorrhagic stroke (collagenase), neuronal death; assay type: in vivo; settings: TSC injected starting 3 hours after collagenase, sacrifice at 48 hours
Description: The first study in which this was done was one conducted using a rat model of hemorrhagic stroke. […] TSC was then injected starting 3 hours after the collagenase was administered, and the animals were sacrificed 48 hours after the administration of the collagenase.
When there is a hemorrhage in the brain, the blood pools and forms a hematoma. Around the periphery of this hematoma, there is a death of neuronal cells. […] Use of the stain, fluorojade, allows one to count the numbers of “dead” neurons in a given brain section of the brain. This was done in the area around the hematomas formed in the hemorrhagic stroke rat model.

neurons [5] = assay: Rat model of Parkinson's disease (6-OHDA), pretreatment, live neuron counts; assay type: in vivo; settings: TSC 0.1 mg/kg for 7 days preceding 10 μg 6-OHDA; sacrifice 4 weeks later; FIG. 8
Description: Another model that was used examined the effect of TSC on neuronal viability is a rat model of Parkinson's disease. In this model, a burr hole is drilled through the skull and into the region of the substantia nigra. The Parkinson's-like condition is induced by injecting 6-hydroxydopamine (6-OHDA) into the brain. An amount of 10 μg of 6-OHDA is frequently injected in this model, and was used in the first study.
In the study, TSC was injected at a dosage of 0.1 mg/kg for 7 days preceding the injection of the 6-OHDA (the same dosing regimen as had been done in the crocetin study). Following the injection of the 6-OHDA, no further treatments were given over the next 4 weeks.
At that time the rats were sacrificed and the brains removed and sent to Charles River Laboratories for counts of live neurons. […] This allowed the comparison of cell death (treated side count/untreated side count) of the controls, which had been pretreated with saline, to the animals pretreated with TSC.

neurons [6] = assay: Rat model of Parkinson's disease (6-OHDA), post-treatment, live neuron counts; assay type: in vivo
Description: It is of much more interest to know the effect of post-treatment on neuronal death following the injection of 6-OHDA. To investigate that, 5 μg of 6-OHDA were again injected into the substantia nigra as before, but the treatment began following that injection. The animals were then given daily injections of TSC (0.25 mg/kg) for 4 weeks before sacrifice. The brains were removed and sent to Charles River Laboratories for neuronal counts.

[7] = test system: B16 (mouse melanoma) cells; assay: Pulmonary metastasis mouse model, B16 tumor counts in lungs; assay type: in vivo
Description: The pulmonary metastasis mouse model is a widely used model for the evaluation of tumor therapy. With B16 (mouse melanoma) cells, essentially all cells “take” upon intravenous cell injection in the tail vein, and the tumors are preferentially formed in the lungs. Thus, the term pulmonary metastasis is widely used even though every resulting pulmonary nodule is technically an independent “primary” tumor rather than a true metastasis.
There is always a fraction of nodules that is amelanotic (“white”) though, and this requires careful counting in order not to underestimate the tumor burden.
For the subject studies, eight-week-old female C57BL/6 mice were obtained from Charles River Laboratories. The mice were housed in groups of 5 or fewer, and received food and water ab libitum.
B16 cells were cultured by the Center for Cell Signaling of the University of Virginia using a standard protocol. The cells were received while they were in an exponential growth phase. The cells were supplied at a concentration of 5×10^5 cells/mL in Hank's buffered salt solution (HBSS).
The cells were injected immediately upon receipt, and this day was designated as Day 0. On Day 0, all of the mice were injected intravenously in the tail vein with 0.1 mL of the cell suspension, meaning that each mouse received 0.5×10^5 cells. The mice were then left alone until Day 4.
On Day 4, the mice were divided into two groups: Group A, consisting of 5 mice, received an intravenous injection of 0.05 mL of saline in the tail vein. Group B, composed of 7 mice, received an intravenous injection of 0.05 mL of a TSC solution in the tail vein, for a TSC dosage of 0.142 mg/kg/day. The same injections were repeated on Days 5-8 and on Days 11-15. On Day 18, the mice were sacrificed using carbon dioxide. The lungs were excised, rinsed and placed in Fekete's Solution and stored at room temperature.
Later, the lungs were assessed visually, in random, blinded order, to obtain a visual count of the numbers of tumors. […] Thus, the tumors were counted visually in two separate groups: small tumors and medium/large tumors. Although the majority of the tumors were black, there were also some white tumors.

neurons [8] = settings: study found in the literature; crocetin pretreatment; cited from earlier work
[9] = C57BL/6 mice lungs Day 18, TSC 0.142 mg/kg/day iv, N 7
[10] = mean±standard deviation, C57BL/6 mice lungs Day 18, TSC 0.142 mg/kg/day iv, N 7

Compound: CC(/C=C/C=C(\C)C(=O)[O-])=C\C=C\C=C(C)\C=C\C=C(/C)C(=O)[O-].[Na+].[Na+] [TSC, trans sodium crocetinate]
- solubility in the acidic environment of the stomach ([1]; TSC is precipitated): practically insoluble
- stability in acidic conditions ([1]; converted to the cis isomer): not stable
- effect of γ-cyclodextrin on absorption of TSC [2]: greatly enhances
- linear regression of Cmax versus TSC dosage [3]: excellent fit
- less death of the neurons around the periphery of the hematoma (neurons [4]): about 20%
- less neuronal death, fluorojade count of dead neurons around the hematomas (neurons [4]; FIG. 7): approximately 30%
- percentage of live neurons (treated side count/untreated side count) vs saline controls (neurons [5]): approximately doubled
- more live neurons vs saline (neurons [6]; 5 μg 6-OHDA, daily TSC 0.25 mg/kg for 4 weeks after injection, p<0.05, FIG. 9): about 20%
- effect on viability of live neurons, non-6-OHDA side of the brain (neurons [6]; daily TSC 0.25 mg/kg for 4 weeks vs saline, FIG. 10): no effect
- Small tumors med. ([7]; C57BL/6 mice lungs Day 18, TSC 0.142 mg/kg/day iv Days 4-8 and 11-15, N 7): 18
- Medium/Large tumors med. [7, 9]: 19
- Total tumors med. [7, 9]: 34
- statistical difference of tumor counts, TSC group vs saline group ([7]; Day 18, large standard deviations): not statistically different
- Medium/Large tumors mean [7, 10]: 30 ± 24
- Small tumors mean [7, 10]: 32 ± 29
- Total tumors mean [7, 10]: 62 ± 53

Compound: CC(/C=C/C=C(\C)C(=O)O)=C\C=C\C=C(C)\C=C\C=C(/C)C(=O)O [crocetin]
- effect of pretreatment on neuronal death following 10 μg 6-OHDA (neurons [8]): beneficial effect
